Source: patent US11400084B2 (BioTheryX, Inc., priority 2018, dated 2022)

Tests used:
Format in all cases: cell-based
[1] = tested on: IL-2; test: IL-2 fold-change assay, anti-CD3 stimulated PBMCs, Mesoscale; settings: Homo sapiens, PBMC, 24 h, fold difference from the DMSO control
Protocol: For the IL-2 analysis, 96 well plates were precoated with 1 μg/mL anti-human CD3 antibody (OKT3, eBioscience Inc., San Diego, Calif.). After washing with PBS, the indicated compound was added (50 μL/well) followed by PBMCs diluted at 3-4 million cells/mL (150 μL/well). Plates were incubated for 24 h and the supernatants collected for Mesoscale IL-2 analysis. IL-2 activity is measured as fold difference from the DMSO control.
In Table 7, the fold-change values are reported as “A”, “B”, “C”, or “D”. “A” represents a fold-change value of equal to or less than 1 (value≤1); “B” represents a fold-change value of more than 1 and equal to or less than 2 (1<value≤2); “C” represents a fold-change value of more than 2 and equal to or less than 3 (2<value≤3); and “D” represents a fold-change value of more than 3 (value>3).

[2] = tested on: MOLM-13 cells; test: MOLM-13 cell viability assay (CellTiter-Glo 2, 3 days, 2500 cells/well); settings: Homo sapiens, MOLM-13, 72 h, percentage of DMSO control
Protocol: MOLM-13 cells were cultured in RPMI 1640 media supplemented with 10% fetal bovine serum, streptomycin and penicillin, and were plated in white walled 96-well plates at 2500 cells/well. Cells were incubated in DMSO (control) or the indicated compound for 3 days at 37° C. and 5% CO2. Following the incubation period, 100 μL of CellTiterGlow2 (CTG2) reagent (CellTiter-Glo®2 Luminescent Cell Viability Assay, Promega (Madison, Wis.)) was added to each well. Following a 10 minutes incubation with shaking, luminescence was measured using the EnVision Multimode plate reader.
The MOLM-13 cell viability values, measured as percentages of the DMSO control, are reported in Table 8 as “A”, “B”, “C”, or “D.” “A” represents a % viability value of less than 40% (value<40%). “B” represents a % viability value of equal to or more than 40% and less than 60% (40%≤value<60%). “C” represents a % viability value of equal to or more than 60% and less than 90% (60%≤value<90%). “D” represents a % viability value of equal or more than 90% (value≥90%).

[3] = tested on: IL-1β; test: IL-1β inhibition assay, LPS-induced PBMCs or CD14+ monocytes, Meso Scale; settings: 100 ng/mL LPS 18-24 h
Protocol: (§1) Either frozen primary blood mononuclear cells (PBMCs) or frozen CD14+ mobilized peripheral blood monocytes were purchased from AllCells (PB003F, Normal Peripheral Blood MNC (Alameda, Calif.)). Cells were quick thawed, washed 1-time with RPMI-1640 (10% FBS/1% Pen-Strep) and plated in 96 well plates at 200,000 cells per well. Cells were pretreated with DMSO only or with the indicated compound for 1 h and then induced with 100 ng/mL lipopolysaccharide (LPS) for 18-24 h. The supernatant was analyzed for IL-1β, IL-6, and TNFα, using Meso Scale assay according to manufacturer's protocol. The negative control wells were treated with DMSO.

[4] = tested on: TNFα; test: TNF-α inhibition assay, LPS-induced PBMCs or CD14+ monocytes, Meso Scale; settings: 100 ng/mL LPS 18-24 h
Protocol: as §1

[5] = target: T1, GSPT1 (Homo sapiens, UniProt P15170+Q96SW2); test: Western blot GSPT1 degradation assay in MV-4-11 cells; settings: 1 μM, MV-4-11 cells, 6-8 hours
T1 construct: whole cell protein extracts were separated on 4-12% SDS-polyacrylamide gels; endogenous in cells; host or cells: MV-4-11
T1 sequence (P15170 whole entry): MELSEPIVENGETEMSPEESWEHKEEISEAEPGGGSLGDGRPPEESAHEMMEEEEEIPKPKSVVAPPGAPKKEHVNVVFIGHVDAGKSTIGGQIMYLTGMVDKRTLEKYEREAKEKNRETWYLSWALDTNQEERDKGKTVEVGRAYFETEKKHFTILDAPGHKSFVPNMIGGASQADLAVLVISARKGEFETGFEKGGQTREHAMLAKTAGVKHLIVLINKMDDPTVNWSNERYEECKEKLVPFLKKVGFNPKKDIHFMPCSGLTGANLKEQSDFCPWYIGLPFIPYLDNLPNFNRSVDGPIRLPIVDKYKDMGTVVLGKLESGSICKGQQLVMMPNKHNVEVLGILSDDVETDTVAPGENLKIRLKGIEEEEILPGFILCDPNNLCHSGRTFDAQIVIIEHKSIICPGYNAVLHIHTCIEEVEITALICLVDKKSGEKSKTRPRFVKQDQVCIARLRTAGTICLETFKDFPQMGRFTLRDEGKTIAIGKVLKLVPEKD
T1 sequence (Q96SW2 whole entry): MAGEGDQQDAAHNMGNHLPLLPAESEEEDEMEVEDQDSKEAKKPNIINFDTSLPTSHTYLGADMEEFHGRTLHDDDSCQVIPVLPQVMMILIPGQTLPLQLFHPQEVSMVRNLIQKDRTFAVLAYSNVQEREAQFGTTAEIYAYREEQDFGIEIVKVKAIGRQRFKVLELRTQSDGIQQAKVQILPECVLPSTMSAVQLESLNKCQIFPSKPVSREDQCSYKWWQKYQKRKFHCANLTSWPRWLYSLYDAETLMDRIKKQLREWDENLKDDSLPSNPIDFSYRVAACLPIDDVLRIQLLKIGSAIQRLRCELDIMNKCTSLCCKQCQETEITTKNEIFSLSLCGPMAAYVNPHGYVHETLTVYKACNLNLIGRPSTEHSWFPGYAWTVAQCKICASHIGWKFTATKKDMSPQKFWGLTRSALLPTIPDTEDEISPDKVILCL
T1 sequence (Q16531 whole entry partner): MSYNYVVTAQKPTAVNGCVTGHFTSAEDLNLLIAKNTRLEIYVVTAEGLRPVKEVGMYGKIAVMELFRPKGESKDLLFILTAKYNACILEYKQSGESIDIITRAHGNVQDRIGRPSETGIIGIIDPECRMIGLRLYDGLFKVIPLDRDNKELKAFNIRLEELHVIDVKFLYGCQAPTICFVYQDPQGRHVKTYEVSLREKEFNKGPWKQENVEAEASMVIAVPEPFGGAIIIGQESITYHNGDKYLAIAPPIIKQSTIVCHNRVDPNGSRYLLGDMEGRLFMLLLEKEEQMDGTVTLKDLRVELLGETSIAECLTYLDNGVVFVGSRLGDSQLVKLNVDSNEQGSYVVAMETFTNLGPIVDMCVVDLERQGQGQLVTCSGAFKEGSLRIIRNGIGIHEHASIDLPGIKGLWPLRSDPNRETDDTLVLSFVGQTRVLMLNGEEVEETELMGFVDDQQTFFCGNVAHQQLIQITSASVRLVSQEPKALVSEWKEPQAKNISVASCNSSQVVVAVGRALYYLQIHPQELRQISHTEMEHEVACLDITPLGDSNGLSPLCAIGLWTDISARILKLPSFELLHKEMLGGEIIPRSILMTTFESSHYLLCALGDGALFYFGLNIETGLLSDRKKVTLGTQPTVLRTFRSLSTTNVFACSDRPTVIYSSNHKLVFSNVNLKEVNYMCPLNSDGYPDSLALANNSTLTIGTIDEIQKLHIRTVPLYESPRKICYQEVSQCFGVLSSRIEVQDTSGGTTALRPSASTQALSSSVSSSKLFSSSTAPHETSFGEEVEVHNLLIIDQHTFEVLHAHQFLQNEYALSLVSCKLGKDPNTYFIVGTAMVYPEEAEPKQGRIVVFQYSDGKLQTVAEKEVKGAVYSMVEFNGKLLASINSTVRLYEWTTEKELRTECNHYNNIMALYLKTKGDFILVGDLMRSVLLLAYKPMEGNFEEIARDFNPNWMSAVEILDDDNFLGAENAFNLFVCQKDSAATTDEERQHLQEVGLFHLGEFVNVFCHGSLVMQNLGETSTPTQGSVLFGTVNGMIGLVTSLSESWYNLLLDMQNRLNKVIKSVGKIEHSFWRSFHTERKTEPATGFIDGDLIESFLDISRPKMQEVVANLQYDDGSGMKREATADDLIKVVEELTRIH
Protocol: (§2) MV-4-11 cells were grown in RPMI 1640 media supplemented with 10% fetal bovine serum, streptomycin and penicillin.
(§3) Cells were cultured at approximately 10^6 cells per mL and incubated in DMSO or the indicated compound for 6-8 hours. Whole cell extracts were prepared using RIPA buffer according to manufacturer's protocol (Pierce). Briefly, 3×10^6 cells were washed once in PBS, the cell pellets were resuspended in RIPA buffer and allowed to incubate for 15 minutes on ice. Cells debris was removed by centrifugation and the cleared whole cell lysates were transferred to new tubes for further analysis.
(§4) For Western blot analysis, whole cell protein extracts were separated on 4-12% SDS-polyacrylamide gels, transferred to nitrocellulose and probed with the indicated primary antibodies. Membranes were subsequently washed and probed with the appropriate IRDye secondary antibodies (LI-COR). The signal was detected using the Odyssey Imaging System (LI-COR).
(§5) The following antibodies were used in these studies: Anti-eRF3/GSPT1: Abcam, ab126090 (Cambridge, Mass.); Anti-Ikaros: Abcam, ab191394 (Cambridge, Mass.); Anti-CK1α: Abcam, ab108296 (Cambridge, Mass.); β-actin (8H10D10) mouse monoclonal antibody: Cell Signaling Technology, #3700 (Danvers, Mass.); IRDye 680RD Goat anti-rabbit antibody: LI-COR, 926-68071 (Lincoln, Nebr.); IRDye 800CW Goat anti-mouse antibody: LI-COR, 926-32210 (Lincoln, Nebr.).
(§6) In each of Tables 1-3, the % degradation values are reported as “A”, “B”, “C”, or “D.” “A” represents a % degradation value of less than 25% (value<25%); “B” represents a % degradation value of equal to or more than 25% and less than 50% (25%≤value<50%); “C” represents a % degradation value of equal to or more than 50% and less than 75% (50%≤value<75%); and “D” represents a % degradation value of equal to or more than 75% (value≥75%).

[6] = target: T2, IKAROS (Homo sapiens, UniProt Q13422+Q96SW2); test: Western blot IKAROS degradation assay in MV-4-11 cells; settings: 6-8 hours
T2 construct: endogenous in cells; host or cells: MV-4-11
T2 sequence (Q13422 whole entry): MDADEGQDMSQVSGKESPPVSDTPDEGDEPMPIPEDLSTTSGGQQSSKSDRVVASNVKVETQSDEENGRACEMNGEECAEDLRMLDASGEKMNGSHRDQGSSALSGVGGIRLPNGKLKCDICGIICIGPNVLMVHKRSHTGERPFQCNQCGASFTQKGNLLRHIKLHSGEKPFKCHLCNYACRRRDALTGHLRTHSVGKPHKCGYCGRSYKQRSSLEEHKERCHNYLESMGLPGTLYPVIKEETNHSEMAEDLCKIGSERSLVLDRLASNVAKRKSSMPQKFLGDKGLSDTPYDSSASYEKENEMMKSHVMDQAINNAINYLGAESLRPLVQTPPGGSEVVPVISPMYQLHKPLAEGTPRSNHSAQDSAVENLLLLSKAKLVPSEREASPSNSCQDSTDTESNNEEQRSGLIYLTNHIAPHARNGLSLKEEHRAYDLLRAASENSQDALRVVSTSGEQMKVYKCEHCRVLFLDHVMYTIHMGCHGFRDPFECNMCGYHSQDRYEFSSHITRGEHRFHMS
T2 sequence (Q96SW2 whole entry): as the sequence (Q96SW2 whole entry) above
T2 sequence (Q16531 whole entry partner): as the sequence (Q16531 whole entry partner) above
Protocol: as §2, §3, §4, §5, §6

[7] = target: T3, CK1α (Homo sapiens, UniProt P48729+Q96SW2); test: Western blot CK1α degradation assay in MV-4-11 cells; settings: 6-8 hours
T3 construct: endogenous in cells; host or cells: MV-4-11
T3 sequence (P48729 whole entry): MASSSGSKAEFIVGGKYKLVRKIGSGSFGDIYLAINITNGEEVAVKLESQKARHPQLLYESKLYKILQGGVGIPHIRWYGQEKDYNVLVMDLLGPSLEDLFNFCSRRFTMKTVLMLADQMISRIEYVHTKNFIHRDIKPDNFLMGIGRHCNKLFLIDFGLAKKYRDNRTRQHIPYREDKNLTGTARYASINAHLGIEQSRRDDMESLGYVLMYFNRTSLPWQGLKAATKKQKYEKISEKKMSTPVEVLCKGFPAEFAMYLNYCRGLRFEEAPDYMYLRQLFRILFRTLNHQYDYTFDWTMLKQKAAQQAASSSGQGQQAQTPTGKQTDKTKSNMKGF
T3 sequence (Q96SW2 whole entry): as the sequence (Q96SW2 whole entry) above
T3 sequence (Q16531 whole entry partner): as the sequence (Q16531 whole entry partner) above
Protocol: as §2, §3, §4, §5, §6

Row | Compound | fold induction at 1 µM [1] | viability at 1 µM [2] [%] | inhibition at 1 µM [3] [%] | inhibition at 1 µM [4] [%] | GSPT1 % Degradation at 1 μM [5] | IKAROS % Degradation at 1 μM [6] | CK1α % Degradation at 1 μM [7]
1 | Cc1ccc(NCC(=O)NCc2scc3c2CN(C2CCC(=O)NC2=O)C3=O)cc1Cl (centres unmarked) [Compound 2, 2-((3-chloro-4-methylphenyl)amino)-N-((5-(2,6-dioxopiperidin-3-yl)-4-oxo-5,6-dihydro-4H-thieno[3,4-c]pyrrol-1-yl)methyl)acetamide] | 1 to 2 | > 90 | > 75 | 50 to 75 | C (a % degradation value of equal to or more than 50% and less than 75% (50%≤value<75%)) | D (a % degradation value of equal to or more than 75% (value≥75%)) | 
2 | CN(C)c1ccc(NCC(=O)NCc2scc3c2CN(C2CCC(=O)NC2=O)C3=O)cc1Cl (centres unmarked) [Compound 8, 2-((3-chloro-4-(dimethylamino)phenyl)amino)-N-((5-(2,6-dioxopiperidin-3-yl)-4-oxo-5,6-dihydro-4H-thieno[3,4-c]pyrrol-1-yl)methyl)acetamide] | 1 to 2 |  | > 75 | > 75 |  |  | 
3 | CN(C)Cc1ccc(NCC(=O)NCc2ccc3c(c2)CN(C2CCC(=O)NC2=O)C3=O)cc1Cl (centres unmarked) [Compound 26] |  |  |  |  | C (a % degradation value of equal to or more than 50% and less than 75% (50%≤value<75%)) |  | C (a % degradation value of equal to or more than 50% and less than 75% (50%≤value<75%))
4 | Cc1ccc(NC(C)C(=O)NCc2scc3c2CN(C2CCC(=O)NC2=O)C3=O)cc1Cl (centres unmarked) [Compound 7, 2-((3-chloro-4-methylphenyl)amino)-N-((5-(2,6-dioxopiperidin-3-yl)-4-oxo-5,6-dihydro-4H-thieno[3,4-c]pyrrol-1-yl)methyl)propanamide] | 2 to 3 |  | > 75 | > 75 |  |  | 
5 | O=C(CNc1cccc(CN2CCOCC2)c1)NCc1scc2c1CN(C1CCC(=O)NC1=O)C2=O (centres unmarked) [Compound 11, N-((5-(2,6-dioxopiperidin-3-yl)-4-oxo-5,6-dihydro-4H-thieno[3,4-c]pyrrol-1-yl)methyl)-2-((3-(morpholinomethyl)phenyl)amino)acetamide] | 1 to 2 | < 40 | 30 to 50 | 30 to 50 | B (a % degradation value of equal to or more than 25% and less than 50% (25%≤value<50%)) | B (a % degradation value of equal to or more than 25% and less than 50% (25%≤value<50%)) | 
6 | O=C(CNc1ccc(N2CCOCC2)c(Cl)c1)NCc1ccc2c(c1)CN(C1CCC(=O)NC1=O)C2=O (centres unmarked) [Compound 22, 2-((3-chloro-4-morpholinophenyl)amino)-N-((2-(2,6-dioxopiperidin-3-yl)-1-oxoisoindolin-5-yl)methyl)acetamide] | 2 to 3 |  | 50 to 75 | 50 to 75 |  |  | 
7 | Cc1ccc(NCC(=O)NCc2ccc3c(c2)C(=O)N(C2CCC(=O)NC2=O)C3=O)cc1Cl (centres unmarked) [Compound 19, 2-((3-chloro-4-methylphenyl)amino)-N-((2-(2,6-dioxopiperidin-3-yl)-1,3-dioxoisoindolin-5-yl)methyl)acetamide] | ≤ 1 | 60 to 90 |  | 30 to 50 | D (a % degradation value of equal to or more than 75% (value≥75%)) | B (a % degradation value of equal to or more than 25% and less than 50% (25%≤value<50%)) | 
8 | O=C(CNc1ccc(CN2CCOCC2)cc1)NCc1scc2c1CN(C1CCC(=O)NC1=O)C2=O (centres unmarked) [Compound 9, N-((5-(2,6-dioxopiperidin-3-yl)-4-oxo-5,6-dihydro-4H-thieno[3,4-c]pyrrol-1-yl)methyl)-2-((4-(morpholinomethyl)phenyl)amino)acetamide] | 1 to 2 |  | 50 to 75 | 50 to 75 |  |  | 
9 | Cc1ccc(NC(C)C(=O)NCc2ccc3c(c2)CN(C2CCC(=O)NC2=O)C3=O)cc1Cl (centres unmarked) [Compound 15, 2-((3-chloro-4-methylphenyl)amino)-N-((2-(2,6-dioxopiperidin-3-yl)-1-oxoisoindolin-5-yl)methyl)propanamide] | 1 to 2 |  |  |  |  |  | 
10 | Cc1cc(NCC(=O)NCc2ccc3c(c2)CN(C2CCC(=O)NC2=O)C3=O)ccc1N1CCOCC1 (centres unmarked) [Compound 23, N-((2-(2,6-dioxopiperidin-3-yl)-1-oxoisoindolin-5-yl)methyl)-2-((3-methyl-4-morpholinophenyl)amino)acetamide] | 1 to 2 | 40 to 60 | 30 to 50 | 30 to 50 | B (a % degradation value of equal to or more than 25% and less than 50% (25%≤value<50%)) | C (a % degradation value of equal to or more than 50% and less than 75% (50%≤value<75%)) | 
11 | Cc1ccc(NCC(=O)NCc2cc3c(s2)CN(C2CCC(=O)NC2=O)C3=O)cc1Cl (centres unmarked) [Compound 6, 2-((3-chloro-4-methylphenyl)amino)-N-((5-(2,6-dioxopiperidin-3-yl)-4-oxo-5,6-dihydro-4H-thieno[2,3-c]pyrrol-2-yl)methyl)acetamide] |  |  | < 30 | < 30 |  |  | 
12 | Cc1ccc(NCC(=O)NCc2scc3c2CN(C2CCC(=O)NC2=O)C3=O)cc1N(C)C (centres unmarked) [Compound 4, 2-((3-(dimethylamino)-4-methylphenyl)amino)-N-((5-(2,6-dioxopiperidin-3-yl)-4-oxo-5,6-dihydro-4H-thieno[3,4-c]pyrrol-1-yl)methyl)acetamide] | 2 to 3 | > 90 | 50 to 75 | 50 to 75 | B (a % degradation value of equal to or more than 25% and less than 50% (25%≤value<50%)) | B (a % degradation value of equal to or more than 25% and less than 50% (25%≤value<50%)) | 
13 | Cc1ccc(NCC(=O)NCc2ccc3c(c2)CN([C@H]2CCCC(=O)NC2=O)C3=O)cc1Cl [Compound 12] | 1 to 2 |  | < 30 | < 30 | C (a % degradation value of equal to or more than 50% and less than 75% (50%≤value<75%)) |  | 
